Assay results published in patent publication US20190032014A1, “USING MICROBIOTA METABOLITES TO DIFFERENTIATE NAÏVE T-CELLS AND RELATED METHODS TO INDUCE OR PREVENT INFLAMMATORY CONDITIONS” (THE TEXAS A&M UNIVERSITY SYSTEM, priority 2016, published 2019).
Entries after “also recorded” stand apart in the source; their conditions may differ.

How the values were obtained:
[1] = system: effector T cell proliferation; test: Suppression assay of effector T cell proliferation by iTregs; type: cell-based, mice
Method: FOXP3-EGFP naïve CD4+ CD25− cells cultured in αCD3/28 coated wells with Treg-skew cytokines and indole or solvent control were cultured for 72 hours, and assessed for FoxP3 expression and proliferation by CFSE dilution.
Specifically, FIG. 13 graphically illustrates the results of the suppression assay, showing the suppression of T-cell proliferation as determined by IL-2 production (an essential marker of T-cell proliferation) with increased proportions of Tregs added to co-cultures with effector T-cells..
After 72 h, cells are stimulated with PMA/ionomycin (10 ng/mL PMA, […] ionomycin). For flow cytometry, cells are treated with Golgi plug (Brefeldin A) for four hours and then stained with fluorophore-conjugated mAbs against both inflammatory (e.g., IL-6, IL-12, IL-17, TNF-α) and anti-inflammatory (e.g., IL-10, IL-35, TGF-β) cytokines. Samples are stained with the maximum number of antibodies. Furthermore, expression of established Treg markers (FOXP3, CD25hi, CD103, CD62L, GITR, PD-1, CD152, CD127, ICOS, Granzyme-B) [Vignali, D. A., L. W. Collison, and C. J. Workman, Nat Rev Immunol 8(7):523-32. (2008); Chen, J., et al., Int Immunopharmacol 11(5):610-7 (2011)] and markers of an inflammatory phenotype (RORγT) can be analyzed. […] The effect of the TDMMs on suppression of effector T cell proliferation is determined as described for FIG. 4. […]

[2] = system: CD4+ CD25− naïve T cells; test: In vitro naïve T cell differentiation, Treg-skew (FoxP3+ by FACS); type: cell-based, C57BL/6 mice; conditions: for effect on % FoxP3+ cells / Treg differentiation: vs DMF control; for % FoxP3+ cells: indole less than 500 μM
Method: Mesenteric lymph node (MLN) and spleen are harvested from WT or FOXP3^EGFP C57Bl/6 mice and homogenized. Spleen tissue is subjected to red blood cell lysis and pooled into a single cell suspension for counting. Counted cells are resuspended in sterile FACS buffer (PBS++ with 05% bovine serum albumin) at a concentration of ˜5×10^7 cells/mL and stained for 45 minutes at 4° C. with anti-CD4 and anti-CD25 fluorophore-conjugated monoclonal antibodies (mAb). After two washes, the stained cells are resuspended at ˜6×10^6 cells/mL in FACS buffer and immediately sorted. […] TDMMs are solubilized in DMF at 2 M and used at desired concentrations (e.g., 0.01, 0.1, 0.5 and 1.0 mM) in growth media; DMF in growth media (0.05%) is used as a solvent control.
The % of Treg or Th17 cells are determined based on the expression of signature transcription factors, FoxP3 and Rorγt, respectively. In addition, signature cytokine markers for Treg and Th17, TGFβ or IL-17, respectively, among others are measured using intracellular cytokine staining. Since it is possible that a cell could be positive for FoxP3 and still express some IL-17, the final % of Tregs are determined as the cell population that is FoxP3+TGFβ+ Rorγt-IL-17−. Similarly, the % of Th17 cells are determined as the population that is FoxP3-TGFβ− Rorγt+IL-17+.
CD4+ CD25− T cells were isolated to high purity (>98%) from the pooled spleen and mesenteric lymph nodes of C57BL/6 mice (Jackson Labs) with a BD FACS Aria II flow cytometer. Fc Block (BD), αCD4-efluor450 (eBioscience clone GK1.5) and αCD25-PECy7 (eBioscience clone PC61.5) antibodies were used for staining before sorting.
For Th1-skew: 5 ng/mL IL-12 (Peprotech cat. #210-12) and 10 µg/mL αIL-4 (BioXCell clone 11B11) were added to culture. For Th2-skew: 10 ng/mL IL-4 (Peprotech) and 10 μg/mL αIFN-γ (BioXCell clone R4-6A2) were added to culture. For Th17-skew: 10 ng/mL IL-6 (Peprotech), 5 ng/mL IL-23 (R&D), 0.5 ng/mL TGF-β (Peprotech), 10 μg/mL al-4 (BioXCell clone 11B11), and 10 μg/mL αIFN-γ (BioXCell clone R4-6A2) were added to culture. For Treg-skew: 2 ng/mL TGF-β (Peprotech) and 100 U/mL IL-2 (Roche) were added to culture. Sodium Propionate, sodium acetate, sodium butyrate and sodium chloride (all from Sigma-Aldrich) were solubilized in media and added to culture. Indole was solubilized in DMF (both from Sigma-Aldrich) at 2M and brought to final concentration in media. MGCD0103 (Selleck Chemicals) was solubilized in DMF at 2 mM and brought to final concentration in media. A 0.05% DMF solvent control was used for all experiments.

[3] = system: Th17 transfer colitis; test: Th17 transfer colitis murine model; type: in vivo, Rag-null mice
Method: Finally, the presentation describes a study of the effects of an indole-induced iTreg skew on the course of colitis in a Th17 transfer colitis murine model. […] Briefly, naïve T-cells (CD4+CD25−) were cultured in vitro with cytokines to skew function towards a Th17 phenotype, in the presence of indole or 5-HI, or not. The skewed cultures were transferred to Rag-null mice (lack T- and B-lymphocytes); control mice received no T-cells. Mice were monitored for weight loss (as a measure of inflammation) over several weeks and assessed at indicated timepoints for T-cell phenotype.
The body weight of the mice was monitored from the time of cell transfer to the end point of day 49. […] Next, the Treg, Th17, and Th1 differentiation was assessed in cells obtained from the mesenteric lymph nodes (MLN) of mice administered directly with indole, 5-HI and control. These cells were determined/assayed by FACS for phenotype directly ex vivo from mice that were treated as in FIG. 28.

[4] = MLN, D15 and D45, by the end point

c1ccc2[nH]ccc2c1 [Indole, indole]
suppression of effector T cell proliferation ([1]; indole-conditioned Tregs, 72-hour suppression assay, vs control iTregs (DMF)): suppress effector T cell proliferation function
suppression of T-cell proliferation (IL-2 production) ([1]; indole-induced iTregs vs nTregs or butyrate-induced iTregs): stronger suppressive characteristics, than nTregs or iTregs induced by butyrate
increase in the % of FOXP3+ cells compared to cells exposed to 1 mM indole ([2]; 750 μM indole, absence of IL-4): 4%
proportion of FoxP3+ iTregs ([2]; 1 mM indole, Treg skewing conditions, solvent control 25%): 68.8%
% FoxP3+ cells with reduced / titrated TGF-β ([2]; TGF-β below threshold for Treg induction, low and high titrations): Treg induction occurs notwithstanding low levels of TGF-β; also recorded: increased the % FoxP3+ cells
FoxP3 induction under Th0 conditions ([2]; Th0 conditions (no TGF-β)): induced FoxP3 even under Th0 conditions
% FoxP3+ cells, indole, butyrate and 5-HI all combined ([2]; Treg skewing conditions): the % FoxP3+ increased again
% FoxP3+ cells, indole combined with 5-HI ([2]; Treg skewing conditions, vs 5-HI alone): negated the inhibitory effects of 5-HI on % FoxP3+ cells
effect on % FoxP3+ cells / Treg differentiation ([2]; Treg skewing conditions): significantly increased the % of FoxP3+ cells
effect on % FoxP3+ cells / Treg differentiation ([2]; Treg skewing conditions, listed as indole): dose-dependent; also recorded: strong pro-Treg response; also recorded: significantly increased the % FoxP3+ cells
% FoxP3+ cells ([2]; IL-4 6 ng/mL): 25%
% FoxP3+ cells ([2]; IL-4 10 ng/mL): 28%
per-cell expression of FOXP3 (GFP) ([2]; indole-induced iTregs, pre- and post-sort, 72 hours): higher per-cell expression of FOXP3 (GFP) both pre- and post-sort
expansion of Tregs (Foxp3+ %) at standard TGF-β dose ([2]; standard TGF-β dose): doubles
level of FoxP3 expression (MFI) ([2]; vs solvent control): significantly increased
Treg differentiation in vivo (% FoxP3+ T cells and FoxP3+ levels, MLN) ([3]; MLN, D15 and D45): induced early differentiation of Treg differentiation in vivo
Th1 differentiation in vivo (% INF-γ+ T cells, Th1/Treg balance, MLN) [3, 4]: suppresses Th1 differentiation in vivo
Th17 differentiation in vivo (% IL-17+ T cells, Th17/Treg balance, MLN) [3, 4]: suppresses Th17 differentiation in vivo
weight change (% from starting weight) ([3]; mice receiving conditioned Th17 T cells, around day 43, end point day 49): increase in body weight
Th17 transfer colitis in vivo (overall) ([3]; mouse, in vivo): inhibits the Th17 transfer colitis in vivo
